From patent US9611248B2, “Chemical compounds” (Syngenta Participations AG, priority 2013, dated 2017) come the findings set out here.

The structures appear in SMILES notation.

The subject of the first assay is a variety of test species. The experiment in a line: Post-emergence herbicidal activity. It is filed as in vivo. Also on record: key to ABUTH (Abutilon theophrasti) damage score / AMARE (Amaranthus retroflexus) damage score / ALOMY (Alopecurus myosuroides) damage score / ECHCG (Echinochloa crus-galli) damage score / ZEAMX (Zea mays) damage score / SOLNI (Solanum nigrum) damage score: 0 = no damage to plant, 5 = total damage to plant. The note with it: rate 250 g/ha, evaluated after 13 days. As for the experimental part:
Seeds of a variety of test species were sown in standard soil in pots. After 8 days cultivation (post-emergence) under controlled conditions in a glasshouse (at 24/16° C., day/night; 14 hours light; 65% humidity), the plants were sprayed with an aqueous spray solution derived from the formulation of the technical active ingredient in acetone/water (50:50) solution containing 0.5% Tween 20 (polyoxyethelyene sorbitan monolaurate, CAS RN 9005-64-5). The test plants were then grown in a glasshouse under controlled conditions (at 24/16° C., day/night; 14 hours light; 65% humidity) and watered twice daily. After 13 days, the test was evaluated (5=total damage to plant; 0=no damage to plant, NC=not captured).
Turning to `COC1=C(C)C(=O)N(c2cc(C(F)(F)F)c(OCCc3ccccc3)cn2)C1O` (stereo not drawn) [AD85], the “ABUTH (Abutilon theophrasti) damage score” value (“ABUTH” for short) was found to be 5, the “ALOMY (Alopecurus myosuroides) damage score” value (shortened to “ALOMY”) was 2, the “AMARE (Amaranthus retroflexus) damage score” value (shortened to “AMARE”) worked out at 5 and the “ECHCG (Echinochloa crus-galli) damage score” value (shortened to “ECHCG”) was 2. Further, the “SETFA (Setaria faberi) damage score” value came out at 4 and the “ZEAMX (Zea mays) damage score” value came out at 1.
In the case of `COC1=C(C)C(=O)N(c2cc(C(F)(F)F)c(OCCc3ccsc3)cn2)C1O` (stereo not drawn) [AD87], the “ABUTH” value amounted to 4, the “ALOMY” value is 3, the “AMARE” value is listed as 5 and the “ECHCG” value is on record as 2. Besides, the “SETFA (Setaria faberi) damage score” value worked out at 3 and the “ZEAMX (Zea mays) damage score” value worked out at 1.

The same assay, now with this note: rate 1000 g/ha, evaluated after 13 days.
In the case of `CC(C)C1=C(Cl)C(O)N(c2cc(C(F)(F)F)ccn2)C1=O` (stereo not drawn) [AA42], the “ABUTH” value was determined as 3, the “ALOMY” value is given as 1, the “AMARE” value is recorded as 3 and the “ECHCG” value was 0. Besides, the “SETFA (Setaria faberi) damage score” value was 0 and the “ZEAMX (Zea mays) damage score” value is given as 1.
Take `CC1=C(Cl)C(O)N(c2cc(C)ccn2)C1=O` (stereo not drawn) [AA13]: the “ABUTH” value came to 5, the “ALOMY” value is listed as 3, the “AMARE” value came out at 4 and the “ECHCG” value is listed as 4. Further, the “SETFA (Setaria faberi) damage score” value is recorded as 4 and the “ZEAMX (Zea mays) damage score” value stood at 0.
As for `COC1=C(Cl)C(=O)N(c2cc(C(C)(C)C)ncn2)C1O` (racemic) [CF1], the “ABUTH” value was 4, the “ALOMY” value is 1, the “AMARE” value is 2 and the “ECHCG” value was 4. For the same molecule, the “SETFA (Setaria faberi) damage score” value is 4 and the “ZEAMX (Zea mays) damage score” value is 1.
For the molecule `COC1=C(C)C(=O)N(c2cc(C)c(S(=O)(=O)N3CCCCC3)cn2)C1O` (stereo not drawn) [AD97], the “ABUTH” value worked out at 0, the “ALOMY” value is given as 0, the “AMARE” value is given as 0 and the “ECHCG” value came to 0. The “SETFA (Setaria faberi) damage score” value is recorded as 0 and the “ZEAMX (Zea mays) damage score” value was found to be 0.
For the molecule `CCO/C=C\c1cnc(N2C(=O)C(C)=C(Cl)C2O)cc1C(F)(F)F` (stereo not drawn) [AA1], the “ABUTH” value amounted to 5, the “ALOMY” value is 3, the “AMARE” value was determined as 5 and the “ECHCG” value is recorded as 5. In addition, the “SETFA (Setaria faberi) damage score” value was 5 and the “ZEAMX (Zea mays) damage score” value amounted to 1.
As for `CCCCOc1cnc(N2C(=O)C(C)=C(OC)C2O)cc1C(F)(F)F` (stereo not drawn) [AD78], the “ABUTH” value is listed as 4, the “ALOMY” value was determined as 3, the “AMARE” value came out at 5 and the “ECHCG” value is on record as 5. Also, the “SETFA (Setaria faberi) damage score” value was found to be 5 and the “ZEAMX (Zea mays) damage score” value is given as 2.
For `CCCC1=C(Cl)C(O)N(c2cc(C(C)(C)C#N)ncn2)C1=O` (stereo not drawn) [CA4], the “ABUTH” value is 2, the “ALOMY” value amounted to 1, the “AMARE” value amounted to 1 and the “ECHCG” value is given as 0. The “SETFA (Setaria faberi) damage score” value is reported as 1 and the “ZEAMX (Zea mays) damage score” value is listed as 1.
`COC1=C(C)C(=O)N(c2cc(C(C)F)ccn2)C1O` (stereo not drawn) [AD18]: the “ABUTH” value came to 4, the “ALOMY” value is 3, the “AMARE” value turned out to be 1 and the “ECHCG” value was determined as 4. Moreover, the “SETFA (Setaria faberi) damage score” value is recorded as 1 and the “ZEAMX (Zea mays) damage score” value is given as 0.
With `COC1=C(C)C(=O)N(c2cc(C(C)(C)C)ccn2)C1O` (stereo not drawn) [AD40], the “ABUTH” value is on record as 5, the “ALOMY” value worked out at 5, the “AMARE” value came out at 5 and the “ECHCG” value was determined as 5. For the same molecule, the “SETFA (Setaria faberi) damage score” value is reported as 5 and the “ZEAMX (Zea mays) damage score” value is 3.
In the case of `CC1=C(Cl)C(O)N(c2cc(Cl)ccn2)C1=O` (stereo not drawn) [AA33], the “ALOMY” value was 1, the “AMARE” value came out at 5, the “ECHCG” value came to 2 and the “SETFA (Setaria faberi) damage score” value was found to be 3. Also, the “SOLNI (Solanum nigrum) damage score” value was determined as 5 and the “ZEAMX (Zea mays) damage score” value amounted to 0.
`COC1=C(C)C(=O)N(c2cc(N3CCCCC3)ncn2)C1O` (stereo not drawn) [CD1, 2-hydroxy-3-methoxy-4-methyl-1-[6-(1-piperidyl)pyrimidin-4-yl]-2H-pyrrol-5-one]: the “ABUTH” value came out at 0, the “ALOMY” value is listed as 0, the “AMARE” value came to 0 and the “ECHCG” value is on record as 0. For the same molecule, the “SETFA (Setaria faberi) damage score” value amounted to 0 and the “ZEAMX (Zea mays) damage score” value is listed as 0.
`COC1=C(C)C(=O)N(c2cc(C)c(-c3ccc(F)cc3C)cn2)C1O` (stereo not drawn) [AD65]: the “ABUTH” value is recorded as 4, the “ALOMY” value is 2, the “AMARE” value is reported as 5 and the “ECHCG” value was 4. Moreover, the “SETFA (Setaria faberi) damage score” value came out at 5 and the “ZEAMX (Zea mays) damage score” value stood at 1.
Turning to `COC1=C(C)C(=O)N(c2cc(C(F)(F)F)c(/C(C)=C/C#N)cn2)C1O` (stereo not drawn) [AD38, (E)-3-[6-(2-hydroxy-3-methoxy-4-methyl-5-oxo-2H-pyrrol-1-yl)-4-(trifluoromethyl)-3-pyridyl]but-2-enenitrile], the “ABUTH” value was determined as 5, the “ALOMY” value stood at 5, the “AMARE” value worked out at 5 and the “ECHCG” value amounted to 5. Moreover, the “SETFA (Setaria faberi) damage score” value was found to be 5 and the “ZEAMX (Zea mays) damage score” value is 0.
In the case of `CCc1cc(N2C(=O)C(C)=C(OC)C2O)ncc1-c1ccccc1OC` (stereo not drawn) [AD100], the “ABUTH” value was found to be 4, the “ALOMY” value is given as 0, the “AMARE” value is recorded as 5 and the “ECHCG” value was 0. Moreover, the “SETFA (Setaria faberi) damage score” value is 4 and the “ZEAMX (Zea mays) damage score” value is 1.
In the case of `COC1=C(Br)C(O)N(c2cc(C(C)(C)C)ccn2)C1=O` (stereo not drawn) [AE2], the “ABUTH” value was 4, the “ALOMY” value was determined as 1, the “AMARE” value was found to be 2 and the “ECHCG” value was 2. The “SETFA (Setaria faberi) damage score” value is recorded as 4 and the “ZEAMX (Zea mays) damage score” value turned out to be 1.
`CCc1cc(N2C(=O)C(C)=C(OC)C2O)ncc1-c1ccccc1C` (stereo not drawn) [AD107]: the “ABUTH” value is reported as 5, the “ALOMY” value was 2, the “AMARE” value is 5 and the “ECHCG” value was determined as 2. In addition, the “SETFA (Setaria faberi) damage score” value was determined as 3 and the “ZEAMX (Zea mays) damage score” value stood at 1.
With `CC1=C(Cl)C(O)N(c2ccc(OC(F)(F)F)cn2)C1=O` (stereo not drawn) [AA38], the “ABUTH” value came out at 1, the “ALOMY” value amounted to 1, the “AMARE” value is 4 and the “ECHCG” value stood at 1. The “SETFA (Setaria faberi) damage score” value was determined as 1 and the “ZEAMX (Zea mays) damage score” value turned out to be 0.
Turning to `COC1=C(C)C(=O)N(c2cc(C(F)(F)F)c(C=C(C)C)cn2)C1O` (stereo not drawn) [AD21, 2-hydroxy-3-methoxy-4-methyl-1-[5-(2-methylprop-1-enyl)-4-(trifluoromethyl)-2-pyridyl]-2H-pyrrol-5-one], the “ABUTH” value is listed as 5, the “ALOMY” value is 2, the “AMARE” value is 5 and the “ECHCG” value is listed as 5. For the same molecule, the “SETFA (Setaria faberi) damage score” value stood at 4 and the “ZEAMX (Zea mays) damage score” value is on record as 0.
Regarding `COC1=C(C)C(=O)N(c2cc(C(F)(F)F)c(-c3ccccc3)cn2)C1O` (stereo not drawn) [AD128], the “ABUTH” value is on record as 5, the “ALOMY” value came out at 3, the “AMARE” value amounted to 5 and the “ECHCG” value stood at 5. Also, the “SETFA (Setaria faberi) damage score” value came to 5 and the “ZEAMX (Zea mays) damage score” value is given as 2.
Take `COC1=C(C)C(=O)N(c2cc(C)c(NC(=O)C(C)(C)C)cn2)C1O` (stereo not drawn) [AD90]: the “ABUTH” value is 5, the “ALOMY” value turned out to be 5, the “AMARE” value was determined as 5 and the “ECHCG” value worked out at 5. For the same molecule, the “SETFA (Setaria faberi) damage score” value was 5 and the “ZEAMX (Zea mays) damage score” value came to 2.
In the case of `CC(C)=C(C)c1cnc(N2C(=O)C(C)=C(Cl)C2O)cc1C(F)(F)F` (stereo not drawn) [AA2], the “ABUTH” value is given as 4, the “ALOMY” value was determined as 2, the “AMARE” value stood at 5 and the “ECHCG” value worked out at 2. Besides, the “SETFA (Setaria faberi) damage score” value was found to be 4 and the “ZEAMX (Zea mays) damage score” value was determined as 2.
